Read-outs that look alike come from different tables or passages of the source.
Key:
[1] = test system: Key Grass and Sedge Weeds as well as Grass Crops; assay: Post-emergent Test II herbicidal activity (Table 16); format: in vivo; conditions: post-emergence, 336 h, 14 d; for pest or weed control at 35 g/ha: 35 g ai/ha; for pest or weed control at 70 g/ha: 70 g ai/ha; for pest or weed control at 140 g/ha: 140 g ai/ha
Procedure, shortened: (§1)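 Visual injury rating (0 = none, 100 = complete kill) taken 14 d after treatment, relative to untreated plants. Compounds in acetone/DMSO with crop oil concentrate and Triton X-155 were track-sprayed at 187 L/ha onto seedlings at the first-second true leaf stage.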

[2] = test system: Key Broadleaf Weed and Crop Species; assay: Post-emergent Test II herbicidal activity (Table 15); format: in vivo; conditions: post-emergence, 336 h, 14 d; for pest or weed control at 35 g/ha: 35 g ai/ha; for pest or weed control at 70 g/ha: 70 g ai/ha; for pest or weed control at 140 g/ha: 140 g ai/ha
Procedure, shortened: as §1

[3] = Cyperus esculentus, yellow nutsedge (Cyperus esculentus), read-out: Visual Growth Reduction (%) 14 Days After Application, CYPES
[4] = Echinochloa crus-galli, barnyardgrass (Echinochloa crus-galli), read-out: Visual Growth Reduction (%) 14 Days After Application, ECHCG
[5] = Oryza sativa, rice (Oryza sativa), read-out: Visual Growth Reduction (%) 14 Days After Application, ORYSA
[6] = Setaria faberi, giant foxtail (Setaria faberi), read-out: Visual Growth Reduction (%) 14 Days After Application, SETFA
[7] = Triticum aestivum, wheat, spring (Triticum aestivum), read-out: Visual Growth Reduction (%) 14 Days After Application, TRZAS
[8] = Zea mays, maize, corn (Zea mays), read-out: Visual Growth Reduction (%) 14 Days After Application, ZEAMX
[9] = Abutilon theophrasti, velvetleaf (Abutilon theophrasti), read-out: Visual Growth Reduction (%) 14 Days After Application, ABUTH
[10] = Amaranthus retroflexus, redroot pigweed (Amaranthus retroflexus), read-out: Visual Growth Reduction (%) 14 Days After Application, AMARE
[11] = Brassica napus, oilseed rape, canola (Brassica napus), read-out: Visual Growth Reduction (%) 14 Days After Application, BRSNN
[12] = Chenopodium album, lambsquarters (Chenopodium album), read-out: Visual Growth Reduction (%) 14 Days After Application, CHEAL
[13] = Euphorbia heterophylla, wild poinsettia (Euphorbia heterophylla), read-out: Visual Growth Reduction (%) 14 Days After Application, EPHHL
[14] = Helianthus annuus, sunflower (Helianthus annuus), read-out: Visual Growth Reduction (%) 14 Days After Application, HELAN

| SMILES | pest or weed control at 35 g/ha [1, 3] [%] | pest or weed control at 70 g/ha [1, 3] [%] | pest or weed control at 140 g/ha [1, 3] [%] | pest or weed control at 35 g/ha [1, 4] [%] | pest or weed control at 70 g/ha [1, 4] [%] | pest or weed control at 140 g/ha [1, 4] [%] | pest or weed control at 35 g/ha [1, 5] [%] | pest or weed control at 70 g/ha [1, 5] [%] | pest or weed control at 140 g/ha [1, 5] [%] | pest or weed control at 35 g/ha [1, 6] [%] | pest or weed control at 70 g/ha [1, 6] [%] | pest or weed control at 140 g/ha [1, 6] [%] | pest or weed control at 35 g/ha [1, 7] [%] | pest or weed control at 70 g/ha [1, 7] [%] | pest or weed control at 140 g/ha [1, 7] [%] | pest or weed control at 35 g/ha [1, 8] [%] | pest or weed control at 70 g/ha [1, 8] [%] | pest or weed control at 140 g/ha [1, 8] [%] | pest or weed control at 35 g/ha [2, 9] [%] | pest or weed control at 70 g/ha [2, 9] [%] | also measured |
| --- | --- | --- | --- | --- | --- | --- | --- | --- | --- | --- | --- | --- | --- | --- | --- | --- | --- | --- | --- | --- | --- |
| COC(=O)c1nc(-c2ccc3cc[nH]c3c2)c(C)c(N)c1Cl [Compound 1.28] | 0 to 29 | 0 to 29 | 0 to 29 | 0 to 29 | 0 to 29 | 0 to 29 | 0 to 29 | 0 to 29 | 0 to 29 | 0 to 29 | 0 to 29 | 0 to 29 | 0 to 29 | 30 to 44 | 30 to 44 | 0 to 29 | 0 to 29 | 0 to 29 | 85 to 94 | 85 to 94 | pest or weed control at 140 g/ha [2, 9]: 95 to 100%; pest or weed control at 35 g/ha [2, 10]: 0 to 29%; pest or weed control at 70 g/ha [2, 10]: 0 to 29%; pest or weed control at 140 g/ha [2, 10]: 60 to 74%; pest or weed control at 35 g/ha [2, 11]: 75 to 84%; pest or weed control at 70 g/ha [2, 11]: 85 to 94%; pest or weed control at 140 g/ha [2, 11]: 85 to 94%; pest or weed control at 35 g/ha [2, 12]: 45 to 59%; pest or weed control at 70 g/ha [2, 12]: 60 to 74%; pest or weed control at 140 g/ha [2, 12]: 60 to 74%; pest or weed control at 35 g/ha [2, 13]: 0 to 29%; pest or weed control at 70 g/ha [2, 13]: 0 to 29%; pest or weed control at 140 g/ha [2, 13]: 0 to 29%; pest or weed control at 35 g/ha [2, 14]: 95 to 100%; pest or weed control at 70 g/ha [2, 14]: 95 to 100%; pest or weed control at 140 g/ha [2, 14]: 95 to 100%; melting point: 231 to 234 °C |
| Cc1c(-c2ccc3cc[nH]c3c2)nc(C(=O)O)c(Cl)c1N [Compound 1.29] | 0 to 29 | 0 to 29 | 30 to 44 | 0 to 29 | 0 to 29 | 0 to 29 | 0 to 29 | 0 to 29 | 0 to 29 | 0 to 29 | 0 to 29 | 0 to 29 | 0 to 29 | 0 to 29 | 0 to 29 | 0 to 29 | 0 to 29 | 0 to 29 | 0 to 29 | 0 to 29 | pest or weed control at 140 g/ha [2, 9]: 0 to 29%; pest or weed control at 35 g/ha [2, 10]: 45 to 59%; pest or weed control at 70 g/ha [2, 10]: 0 to 29%; pest or weed control at 140 g/ha [2, 10]: 0 to 29%; pest or weed control at 35 g/ha [2, 11]: 75 to 84%; pest or weed control at 70 g/ha [2, 11]: 75 to 84%; pest or weed control at 140 g/ha [2, 11]: 85 to 94%; pest or weed control at 35 g/ha [2, 12]: 45 to 59%; pest or weed control at 70 g/ha [2, 12]: 45 to 59%; pest or weed control at 140 g/ha [2, 12]: 75 to 84%; pest or weed control at 35 g/ha [2, 13]: 0 to 29%; pest or weed control at 70 g/ha [2, 13]: 0 to 29%; pest or weed control at 140 g/ha [2, 13]: 0 to 29%; pest or weed control at 35 g/ha [2, 14]: 60 to 74%; pest or weed control at 70 g/ha [2, 14]: 60 to 74%; pest or weed control at 140 g/ha [2, 14]: 75 to 84%; melting point: 168 to 175 °C |
| COC(=O)c1nc(-c2ccc3cc[nH]c3c2)nc(N)c1Cl [Compound 1.30] | 0 to 29 | 0 to 29 | 0 to 29 | 0 to 29 | 0 to 29 | 0 to 29 | 0 to 29 | 0 to 29 | 0 to 29 | 0 to 29 | 0 to 29 | 0 to 29 | 0 to 29 | 0 to 29 | 0 to 29 | 0 to 29 | 0 to 29 | 0 to 29 | 0 to 29 | 0 to 29 | pest or weed control at 140 g/ha [2, 9]: 75 to 84%; pest or weed control at 35 g/ha [2, 10]: 0 to 29%; pest or weed control at 70 g/ha [2, 10]: 75 to 84%; pest or weed control at 140 g/ha [2, 10]: 60 to 74%; pest or weed control at 35 g/ha [2, 11]: 45 to 59%; pest or weed control at 70 g/ha [2, 11]: 45 to 59%; pest or weed control at 140 g/ha [2, 11]: 60 to 74%; pest or weed control at 35 g/ha [2, 12]: 30 to 44%; pest or weed control at 70 g/ha [2, 12]: 30 to 44%; pest or weed control at 140 g/ha [2, 12]: 45 to 59%; pest or weed control at 35 g/ha [2, 13]: 0 to 29%; pest or weed control at 70 g/ha [2, 13]: 45 to 59%; pest or weed control at 140 g/ha [2, 13]: 60 to 74%; pest or weed control at 35 g/ha [2, 14]: 0 to 29%; pest or weed control at 70 g/ha [2, 14]: 0 to 29%; pest or weed control at 140 g/ha [2, 14]: 0 to 29%; melting point: 240 to 242 °C |

From patent US20170050957A1, “4-AMINO-6-(HETEROCYCLIC)PICOLINATES AND 6-AMINO-2-(HETEROCYCLIC)PYRIMIDINE-4-CARBOXYLATES AND THEIR USE AS HERBICIDES” (Dow AgroSciences LLC, priority 2013, published 2017)
